Measurements published in patent publication US20170209574A1, “COMBINATION THERAPIES” (Novartis AG, priority 2014, published 2017).

Key:
[1] = tested on: EGFR mutant (L858R, ex19del and T790M) cancer models; details: cited from earlier work
PD-L1 (CD274) [2] = assay: TaqMan RT PCR of PD-L1 mRNA in UKE-1 tumor xenograft model; format: in vivo, human; details: tumor xenograft model bearing UKE-1 (MPN line with JAK2V617F mutation); FIG. 6
Method: (§1) TaqMan RT PCR assays were developed to detect changes of expression levels of PD-L1 (CD274) in cell lines and xenograft tumors. mRNA was isolated from frozen cell pellets or tumor fragments using the Qiagen RNeasy Mini kit. Isolated RNA was frozen at −80° C. RNA quality was checked and RNA was quantified using a 2100 Agilent Bioanalyzer following the protocol for the Agilent RNA 6000 Nano Kit. cDNA was prepared using a High Capacity RNA- to cDNA Kit (Applied Biosystems).
(§2) Real-time PCR reactions were carried out in 20 μl total volume, including 10 μl of Universal PCR master mix (Applied Biosystems), 1 μl of human PD-L1 (CD274) probe/primer set (Applied Biosystems), and 8 μl of cDNA. Each sample was run in triplicate. The amount of cDNA produced from 25-50 ng of RNA in the reverse transcription reaction was used in each PCR reaction. Due to difference in mRNA levels between PD-L1 and GAPDH, the two real-time PCR reactions were done in separate tubes using same amount of cDNA. The real-time PCR reaction was run on the C1000 Thermal Cycle (BioRad) with the cycle program as follows: a 10 minute incubation at 95° C. followed by 40 cycles of 95° C. for 15 seconds and 60° C. for 1 minute. After the reaction was complete, the PD-L1 average Ct was normalized relative to each Ct value from the GAPDH reference reaction. Each normalized logarithmic value was then converted into a linear value.

PD-L1 (CD274) [3] = assay: TaqMan RT PCR of PD-L1 mRNA in Hs.746.T tumor xenograft; format: in vivo, human; details: Hs.746.T tumor (gastric cancer cell with cMET amplification & mutation) xenograft; FIG. 2
Method: as §1, §2

PD-L1 (CD274) [4] = assay: Flow cytometry of PD-L1 surface expression in EBC-1 cells treated with INC280; format: cell-based, human; details: EBC-1 cells (NSCLC with cMET amplification), in vitro; INC280 10, 100, 1000 nM for 24, 48, 72 hours; FIG. 1
Method: PD-L1 (CD274) expression was analyzed in cancer cell lines treated with INC280. Cells were obtained from ATCC and cultured in vitro following ATCC directions. The cell lines used were previously characterized by the Cancer Cell Line Encyclopedia Project (www.broadinstitute.org/ccle/home).
Cells plated in six-well culture plates were treated with the INC280 at different concentrations (10 nM, 100 nM, and 1000 nM) for 24, 48 and 72 hours. Equal amount of vehicle (DMSO) was used as a control. Cells were washed with PBS and then harvested using a cell scraper.
For each reaction, 0.5-1×10^6 cells were stained with 200 μL of anti-human monoclonal PD-L1-PE antibody, clone M1H1 (BD) for 30-60 minutes at 4° C. Cells were washed twice and data was acquired using a Canto II with FACSDiva software (BD Bioscience). Data analysis was performed using FlowJo software (Tree Star). Mean fluorescence intensity (MFI) was determined by gating on single cells. Unstained cells were used as a gating control.

PD-L1 (CD274) [5] = assay: TaqMan RT PCR of PD-L1 mRNA in LOXIMV1 tumor xenograft model; format: in vivo, human; details: tumor xenograft model bearing LOXIMV1 (BRAF mutant melanoma); FIG. 4
Method: as §1, §2

PBMCs = assay: Cytokine analysis (Luminex) of anti-CD3 stimulated PBMCs; format: cell-based, human; details: suboptimal anti-CD3 0.005 ug/ml, LCL161 1, 50, 100 or 1000 nM, day 5 supernatants
Method: Blood was obtained from normal healthy donors. Peripheral blood mononuclear cells (PBMCs) were isolated by centrifuging blood in CPT™ tubes for 18 minutes at 1800×g. Cells were washed twice with cold PBS, enumerated and then stimulated in 96-well round bottomed tissue culture plates (500,000 cells per well) for 5 days at 37° C., 5% CO2. Cells were either left untreated (DMSO control) or treated with different concentrations of LCL161 (1, 50, 100, or 1000 nM). For the cytokine analyses, cells were stimulated with a suboptimal anti-CD3 stimulus (0.005 ug/ml of soluble clone UCHT1). At day 5 post stimulation, supernatants were collected and analyzed for cytokines (Luminex).

TIM-3 = assay: CyTOF mass cytometry of PBMCs (immune checkpoint modulation); format: cell-based, human; details: PBMCs +/- 100 ng/mL anti-CD3, 100 nM LCL161, 4 days; monocytes, naive, memory and activated T killer cells, memory T helper cells; FIG. 9
Method: PBMCs were isolated from healthy donors via BD CPT™ vacutainer tubes. 1 million cells/mL were plated in RPMI+10% FBS+/−100 ng/mL of anti-CD3 antibody+/−DMSO or 100 nM LCL161 for 4 days. Cells were harvested, washed, stained with a panel of metal-conjugated antibodies listed below in Table 2 for analysis by CyTOF mass cytometry. Data were visualized by SPADE using Cytobank webware. SPADE and its use are described, e.g., in Peng et al., Nature Biotechnology, 29, 886-891 (2011); Sean et al, Science, 332 (6030): 687-696 (2011).
A Panel of Metal-Conjugated Antibodies for Analysis by CyTOF Mass Cytometry

[6] = tested on: human CD4+ and CD8+ T cells; assay: CFSE proliferation analysis of anti-CD3 stimulated PBMCs (FACS); format: cell-based; details: 1 ug/ml soluble anti-CD3, increasing concentrations of LCL161, 5 days
Method: For the proliferation analyses, cells were labeled with 5 uM carboxyfluorescein diacetate succinimidyl ester (CFSE) before stimulation, and then treated with 1 ug/ml soluble anti-CD3. Covalently bound CFSE is divided equally between daughter cells, allowing discrimination of successive rounds of cell division and to track proliferating cells (Lyons et al., Curr Protoc Cytom. 2013; Chapter 9: Unit 9.11). PBMCs were stimulated in the presence of increasing concentrations of LCL161 (or DMSO control) for 5 days. At day 5 post stimulation, cells were harvested, stained with anti-CD4, -CD8, -PD-1, or -CD127, followed by FACS analysis. Results for one donor are shown. Similar results were obtained with PBMCs from 4 other donors.

[7] = tested on: ALK-positive NSCLC patients; assay: Clinical study of LDK378 in ALK-positive NSCLC patients; format: in vivo, human; details: 750 mg; 53.3% of the patients censored
PD-L1 (CD274) [8] = assay: TaqMan RT PCR of PD-L1 mRNA in H3122 cells in vitro; format: cell-based, human; details: H3122 (NSCLC with ALK translocation) in vitro; FIG. 3
Method: as §1, §2

PD-L1 (CD274) [9] = assay: TaqMan RT PCR of PD-L1 mRNA in HEYA8 tumor xenograft model; format: in vivo, human; details: tumor xenograft model bearing HEYA8 (KRAS mutant ovarian cancer); FIG. 5
Method: as §1, §2

SMILES: Cc1cc(C(=O)Nc2nc3cccc(Cl)c3n2[C@@H]2CCCCN(C(=O)/C=C/CN(C)C)C2)ccn1 [EGF816, (R,E)-N-(7-chloro-1-(1-(4-(dimethylamino)but-2-enoyl)azepan-3-yl)-1H-benzo[d]imidazol-2-yl)-2-methylisonicotinamide]
- efficacy in EGFR mutant cancer models ([1]; L858R, ex19del and T790M, in vitro and in vivo): significant efficacy
- WT EGFR inhibition ([1]; at clinically relevant efficacious concentrations): no indication of WT EGFR inhibition

SMILES: N#CC[C@H](C1CCCC1)n1cc(-c2ncnc3[nH]ccc23)cn1 [INC424, (3R)-3-cyclopentyl-3-[4-(7H-pyrrolo-[2,3-d]pyrimidin-4-yl)-1H-pyrazol-1-yl]propanenitrile]
- PD-L1 mRNA (PD-L1 (CD274) [2]): Downregulation of PD-L1 mRNA

SMILES: CNC(=O)c1ccc(-c2cnc3ncc(Cc4ccc5ncccc5c4)n3n2)cc1F [INC280, 2-fluoro-N-methyl-4-[7-(quinolin-6-ylmethyl)imidazo[1,2-b][1,2,4]triazin-2-yl]benzamide]
- PD-L1 expression (mRNA) (PD-L1 (CD274) [3]): Inhibition of PD-L1 expression (mRNA)
- surface expression of PD-L1 (flow cytometry) (PD-L1 (CD274) [4]): significant downregulation of surface expression of PD-L1

SMILES: COC(=O)N[C@@H](C)CNc1nccc(-c2cn(C(C)C)nc2-c2cc(Cl)cc(NS(C)(=O)=O)c2F)n1 [LGX818, methyl (S)-(1-((4-(3-(5-chloro-2-fluoro-3-(methylsulfonamido)phenyl)-1-isopropyl-1H-pyrazol-4-yl)pyrimidin-2-yl)amino)propan-2-yl)carbamate]
- PD-L1 mRNA (PD-L1 (CD274) [5]): Downregulation of PD-L1 mRNA

SMILES: CN[C@@H](C)C(=O)N[C@H](C(=O)N1CCC[C@H]1c1nc(C(=O)c2ccc(F)cc2)cs1)C1CCCCC1 [LCL161, (S)—N—((S)-1-cyclohexyl-2-((S)-2-(4-(4-fluorobenzoyl)thiazol-2-yl)pyrrolidin-1-yl)-2-oxoethyl)-2-(methylamino)propanamide]
- IFN-gamma production (PBMCs; FIG. 7A): increases in immune-active cytokine, IFN-gamma
- IL-10 production (PBMCs; FIG. 7B): reduction in immune-suppressive cytokine IL-10
- TIM-3 expression (TIM-3): increase in TIM-3 expression
- proliferation of CD4+ T cells (CFSE dilution) ([6]; FIG. 8A): enhanced proliferation
- proliferation of CD8+ T cells (CFSE dilution) ([6]; FIG. 8B): enhanced proliferation

SMILES: Cc1cc(Nc2ncc(Cl)c(Nc3ccccc3S(=O)(=O)C(C)C)n2)c(OC(C)C)cc1C1CCNCC1 [LDK378, 5-chloro-N2-(2-isopropoxy-5-methyl-4-(piperidin-4-yl)-phenyl)-N4-[2-(propane-2-sulfonyl)-phenyl]-pyrimidine-2,4-diamine]
- median progression-free survival (PFS) [7]: 8.21 months
- PD-L1 mRNA (PD-L1 (CD274) [8]): Inhibition of PD-L1 mRNA

SMILES: Cn1cnc2c(F)c(Nc3ccc(Br)cc3F)c(C(=O)NOCCO)cc21 [MEK162, 5-((4-bromo-2-fluorophenyl)amino)-4-fluoro-N-(2-hydroxyethoxy)-1-methyl-1H-benzo[d]imidazole-6-carboxamide]
- PD-L1 mRNA (PD-L1 (CD274) [9]): Downregulation of PD-L1 mRNA
